Drawing on patent publication US8895585B2, “Nicotinamide derivative or salt thereof” (FUJIFILM Corporation, priority 2010, dated 2014), this text covers IC50 for 41 compounds.

As a reminder, the IC50 is the point on the concentration scale where inhibition reaches its midpoint.

This assay deals with T1, glutathione S-transferase (GST)-fused full-length human Syk protein (Homo sapiens, UniProt P43405).
T1 construct: (GST)-fused full-length human Syk protein; GST (glutathione S-transferase); purchased Carna Biosciences
Briefly: Syk enzyme assay. The assay is classed as biochemical. In a few lines:
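IC50 values come from a time-resolved FRET readout (615 and 665 nm) of substrate phosphorylation, measured after an EDTA stop and 1 h antibody binding. The kinase reaction ran 40 min at room temperature with 27 μM ATP and 0.4 μM biotin-peptide, following a 15 min compound preincubation with baculovirus-made GST-full-length human Syk.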

Setting [1] is: Syk enzyme assay, Test Example 1, read-out: IC50 of Syk-inhibitory activity.
The mark [2] stands for this setting: read-out: Syk-inhibitory activity (IC50).

Like-named read-outs stand apart in the source and are kept apart here.

For the compound `COc1cc(-c2cncc(Nc3nc(NC4CCCCC4N)c(F)cc3C(N)=O)c2)cc(OC)c1OC` (centres unmarked) [Example 002-171], the half-inhibitory concentration (IC50) under setting [1] is 50 to 100 nM. The same measure, in the same setting: under `Cc1cc(Nc2nc(N[C@H](CCCN)[C@H](C)N)c(F)cc2C(N)=O)cnc1C` [Example 045-000] stands 100 to 1000 nM; under `Cc1ncc(Nc2nc(N[C@@H]3CCCC[C@@H]3N)c(F)cc2C(N)=O)cc1-n1ccnn1` (relative stereo) [Example 006-152, 6-((cis-2-aminocyclohexyl)amino)-5-fluoro-2-((6-methyl-5-(1H-1,2,3-triazol-1-yl)pyridin-3-yl)amino)nicotinamide], 10 to 50 nM; under `NC(=O)c1cc(F)c(NC2CCCCC2N)nc1Nc1ccc(-n2nccn2)nc1` (centres unmarked) [Example 002-161], 50 to 100 nM.

On to `CNc1nc(Nc2ccc3ncccc3c2)c(C(N)=O)cc1F` [Example 012-022], for which the IC50 under setting [1] was 100 to 1000 nM. On the same count and under the same terms, as for `NC(=O)c1cc(F)c(N[C@@H]2CCCC[C@@H]2N)nc1Nc1cc(F)cc2c1ccn2CCN1CCOCC1` (relative stereo) [Example 004-083, 6-(cis-2-aminocyclohexylamino)-5-fluoro-2-((6-fluoro-1-(2-morpholinoethyl)-1H-indol-4-yl)amino)nicotinamide], the figure is under 10 nM; as for `CCCC[C@H](CN)Nc1nc(Nc2cncc(C3CC3)c2)c(C(N)=O)cc1F` [Example 006-340, (R)-6-((1-aminohexan-2-yl)amino)-2-((5-cyclopropylpyridin-3-yl)amino)-5-fluoronicotinamide], under 10 nM. `CS(=O)(=O)Nc1cncc(Nc2nc(NC3CCCCC3N)c(F)cc2C(N)=O)c1` (centres unmarked) [Example 027-006]: under setting [1], the IC50 is 100 to 1000 nM. Take `NC(=O)c1cc(F)c(NC(Cc2ccc(F)cc2)C(N)=O)nc1Nc1ccc2ncccc2c1` (centres unmarked) [Example 012-033]: the IC50 under setting [1] was 10 to 50 nM.

For the compound `COc1cc(Nc2nc(N[C@@H](C(N)=O)c3ccccc3)c(F)cc2C(N)=O)cc(OC)c1` [Example 016-017], under setting [1], the IC50 is 10 to 50 nM. The same measure, in the same setting: under `COC(C)CCOc1ccc2ccc(Nc3nc(NC4CCCCC4N)c(F)cc3C(N)=O)cc2n1` (centres unmarked) [Example 002-092] stands under 10 nM.

For `Cc1ccc(-c2cncc(Nc3nc(N[C@@H]4CCCC[C@@H]4N)c(F)cc3C(N)=O)c2)cc1` (relative stereo) [Example 004-100, 6-(cis-2-aminocyclohexylamino)-5-fluoro-2-((5-(4-methylphenyl)pyridin-3-yl)amino)-nicotinamide], under setting [1], the IC50 was under 10 nM. Still for that read-out and setting: under `NCCNc1nc(Nc2cccc(Cl)c2)c(C(N)=O)cc1F` [Example 006-006, 6-((2-aminoethyl)amino)-2-(3-chlorophenylamino)-5-fluoronico-tinamide] stands 100 to 1000 nM; under `NC(=O)c1cc(F)c(NCc2ccncc2)nc1Nc1ccc2ncccc2c1` [Example 012-018], 100 to 1000 nM; under `NC(=O)c1cc(F)c(N[C@@H]2CCCC[C@@H]2N)nc1Nc1cncc(-c2ccc(Cl)cc2)c1` (relative stereo) [Example 004-148, 6-(cis-2-aminocyclohexylamino)-2-((5-(4-chlorophenyl)pyridin-3-yl)amino)-5-fluoronicotinamide], 10 to 50 nM. Still for that read-out and setting: under `CN(C)C(=O)c1cc(Nc2nc(NC3CCCC[C@@H]3N)c(F)cc2C(N)=O)ccn1` (some centres unmarked) [Example 029-014] stands 50 to 100 nM; under `NC(=O)c1cc(F)c(N[C@@H]2CCCC[C@@H]2N)nc1Nc1ccc(C(F)(F)F)nc1` (relative stereo) [Example 004-102, 6-(cis-2-aminocyclohexylamino)-5-fluoro-2-((6-(trifluoromethyl)pyridin-3-yl)amino)-nicotinamide], 50 to 100 nM; under `C[C@@H]1CN(c2cncc(Nc3nc(N[C@@H]4CCCC[C@@H]4N)c(F)cc3C(N)=O)c2)C[C@H](C)O1` [Example 004-180], 10 to 50 nM. Still for that read-out and setting: as for `NC(=O)c1cc(F)c(N[C@@H]2CCCC[C@@H]2N)nc1Nc1cncc(CO)c1` (relative stereo) [Example 004-193, 6-(cis-2-aminocyclohexylamino)-5-fluoro-2-((5-(hydroxymethyl)pyridin-3-yl)amino)nicotinamide], the figure is 50 to 100 nM.

Regarding `COc1cc(Nc2nc(NCC(N)=O)c(F)cc2C(N)=O)cc(OC)c1` [Example 016-005], the IC50 under setting [1] is 100 to 1000 nM.

For `NC(=O)c1cc(F)c(N[C@@H]2CCCC[C@@H]2N)nc1Nc1cnc2cc(-n3cccn3)ccc2c1` (relative stereo) [Example 004-210, 2-((7-(1H-pyrazol-1-yl)quinolin-3-yl)amino)-6-(cis-2-aminocyclohexylamino)-5-fluoronicotinamide], the IC50 under setting [1] was under 10 nM.

For `COc1ccc(-c2cncc(Nc3nc(N[C@@H](CN)CC(C)C)c(F)cc3C(N)=O)c2)c(F)c1` [Example 006-319, (R)-6-((1-amino-4-methylpentan-2-yl)amino)-5-fluoro-2-((5-(2-fluoro-4-methoxyphenyl)pyridin-3-yl)amino)nicotinamide], the IC50 under setting [1] lay in the range of 10 to 50 nM.

As to `NC(=O)c1cc(F)c(N[C@@H]2CCCC[C@@H]2N)nc1Nc1ccc(-c2ccccc2)nc1` (relative stereo) [Example 2-9, 6-(cis-2-aminocyclohexylamino)-5-fluoro-2-((6-phenylpyridin-3-yl)amino)nicotinamide], under setting [2], the IC50 is at most 1000 nM. With `NC(=O)c1cc(F)c(N[C@@H]2CCCC[C@@H]2N)nc1Nc1ccnc(CO)c1` (relative stereo) [Example 004-194, 6-(cis-2-aminocyclohexylamino)-5-fluoro-2-((2-(hydroxymethyl)pyridin-4-yl)amino)nicotinamide], the IC50 under setting [1] was 10 to 50 nM. Same read-out and setting: as for `NC(=O)c1cc(F)c(N[C@H](Cc2cnc[nH]2)C(N)=O)nc1Nc1ccc2ncccc2c1` [Example 012-035, (R)-6-((1-amino-3-(1H-imidazol-5-yl)-1-oxopropan-2-yl)amino)-5-fluoro-2-((quinolin-6-yl)amino)nicotinamide], the figure is 100 to 1000 nM; as for `COc1cc(Nc2nc(NC3CCCC3C(N)=O)c(F)cc2C(N)=O)cc(OC)c1` (centres unmarked) [Example 033-007], 100 to 1000 nM.

For the compound `COCCOc1ncc(Nc2nc(N[C@@H]3CCCC[C@@H]3N)c(F)cc2C(N)=O)cc1C1CC1` [Example 006-574, 6-(((1R,2S)-2-aminocyclohexyl)amino)-2-((5-cyclopropyl-6-(2-methoxyethoxy)pyridin-3-yl)amino)-5-fluoronicotinamide], the IC50 under setting [1] lay within 10 to 50 nM. Consider `Cc1cccc(Nc2nc(NCCN)c(F)cc2C(N)=O)c1` [Example 6-2, 6-((2-aminoethyl)amino)-5-fluoro-2-(3-methylphenylamino)nico-tinamide], for which the IC50 under setting [2] is at most 1000 nM. Turning to `CC(C)(C)C(=O)Nc1cccc2cc(Nc3nc(N[C@@H]4CCCC[C@@H]4N)c(F)cc3C(N)=O)cnc12` (relative stereo) [Example 41-11, 6-(cis-2-aminocyclohexylamino)-5-fluoro-2-((8-pivalamidequinolin-3-yl)amino)nicotinamide], the IC50 under setting [1] is under 10 nM.

Turning to `NC(=O)c1cc(F)c(N[C@@H]2CCCC[C@@H]2N)nc1Nc1cc(OCc2ccccc2)c2ncccc2c1` (relative stereo) [Example 004-140, 6-(cis-2-aminocyclohexylamino)-2-((8-(benzyloxy)quinolin-6-yl)amino)-5-fluoronicotinamide], the IC50 under setting [1] was 10 to 50 nM. For the compound `NC(=O)c1cc(F)c(N[C@@H]2CCCC[C@@H]2N)nc1Nc1cncnc1` [Example 004-001], the IC50 under setting [1] fell in the range of 100 to 1000 nM. Consider `COc1ccc(S(=O)(=O)Nc2cccc3cc(Nc4nc(N[C@@H]5CCCC[C@@H]5N)c(F)cc4C(N)=O)cnc23)cc1` (relative stereo) [Example 41-5, 6-(cis-2-aminocyclohexylamino)-5-fluoro-2-((8-(4-methoxyphenylsulphonamide)quinolin-3-yl)amino)nicotinamide], for which, under setting [1], the IC50 was in the range of 50 to 100 nM. As to `Cn1cc(Nc2nc(NC3CCCCC3N)c(F)cc2C(N)=O)ccc1=O` (centres unmarked) [Example 002-202], under setting [1], the IC50 lay within 100 to 1000 nM. On the same count and under the same terms, under `COCCNc1cc(Nc2nc(N[C@@H]3CCCC[C@@H]3N)c(F)cc2C(N)=O)cc2cccnc12` (relative stereo) [Example 004-137, 6-(cis-2-aminocyclohexylamino)-5-fluoro-2-((8-(2-methoxyethylamino)quinolin-6-yl)-amino)nicotinamide] stands under 10 nM; under `CC(C)[C@@H](Nc1nc(Nc2ccc3ncccc3c2)c(C(N)=O)cc1F)C(N)=O` [Example 012-032], 50 to 100 nM; under `COc1ncc(Nc2nc(NC3CCCCC3N)c(F)cc2C(N)=O)cc1C1CC1` (centres unmarked) [Example 002-153], 10 to 50 nM. `CCOc1ncc(Nc2nc(N[C@@H]3CCCC[C@@H]3N)c(F)cc2C(N)=O)cc1C1CC1` [Example 006-573, 6-(((1R,2S)-2-aminocyclohexyl)amino)-2-((5-cyclopropyl-6-ethoxypyridin-3-yl)amino)-5-fluoronicotinamide]: the IC50 under setting [1] lay within 10 to 50 nM. Take `CCOCCOCCOc1nccc2cc(Nc3nc(N[C@@H]4CCCC[C@@H]4N)c(F)cc3C(N)=O)ccc12` (relative stereo) [Example 004-169, 6-(cis-2-aminocyclohexylamino)-2-((1-(2-(2-ethoxyethoxy)ethoxy)isoquinolin-6-yl)amino)-5-fluoronicotinamide]: the IC50 under setting [1] is under 10 nM. `NC(=O)c1cc(F)c(NC2CCCCC2N)nc1Nc1cncc(NC(=O)c2ccsc2)c1` (centres unmarked) [Example 027-032]: under setting [1], the IC50 is under 10 nM.

For `CC(C)C[C@@H](Nc1nc(Nc2ccc3c(cnn3CCF)c2)c(C(N)=O)cc1F)[C@H](C)N` [Example 006-419, 6-(((2S,3R)-2-amino-5-methylhexan-3-yl)amino)-5-fluoro-2-((1-(2-fluoroethyl)-1H-indazol-5-yl)amino)nicotinamide], the IC50 under setting [1] is under 10 nM. On the same count and under the same terms, under `NC(=O)c1cc(F)c(NC2CCCCC2N)nc1Nc1cnc(N2CCOCC2)c(-c2ccoc2)c1` (centres unmarked) [Example 002-072] stands 10 to 50 nM.
